Data on 22 compounds can be found in patent US8436043B2 (Takeda Pharmaceutical Company Limited, priority 2008, dated 2013).

Structures are written as SMILES.

T1 sequence (P47871 26-477): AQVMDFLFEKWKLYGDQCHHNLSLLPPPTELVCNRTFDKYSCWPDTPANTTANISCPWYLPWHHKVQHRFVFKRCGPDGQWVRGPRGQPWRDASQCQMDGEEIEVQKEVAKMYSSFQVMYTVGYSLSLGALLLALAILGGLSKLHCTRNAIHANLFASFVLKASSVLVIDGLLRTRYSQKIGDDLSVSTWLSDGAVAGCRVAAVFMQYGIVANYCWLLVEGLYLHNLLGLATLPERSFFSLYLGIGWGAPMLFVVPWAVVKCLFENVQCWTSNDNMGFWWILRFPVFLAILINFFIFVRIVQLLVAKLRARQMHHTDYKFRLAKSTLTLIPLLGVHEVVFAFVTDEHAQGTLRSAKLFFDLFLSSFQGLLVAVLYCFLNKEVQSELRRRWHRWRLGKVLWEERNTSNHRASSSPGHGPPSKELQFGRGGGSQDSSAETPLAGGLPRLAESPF

The assay addresses T1, human glucagon receptor (Homo sapiens, UniProt P47871).
T1 construct: made in house; host or cells: FreeStyle CHO cells, transient transfection with pMSRαneo/hGCGR; membrane fraction (35,000 rpm pellet)
The assay is described as follows: Glucagon binding inhibitory activity ([125I]-glucagon binding to glucagon receptor membrane protein). The settings on record: test compound 10 μM; 0.4% DMSO = 0%, non-labeled glucagon 1 μM = 100%; read-out: inhibitory rate (%) at 10 μM. Put shortly: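 Receptor source was a membrane fraction of transiently transfected CHO cells bearing human receptor; 90 min room-temperature binding, filtration harvest, scintillation counting.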
Consider `Cc1c(C(Nc2ccc(C(=O)NCCC(=O)O)cc2)C2CCCCC2)oc2cccnc12` (stereo not shown) [Example A112, 3-{[(4-{[cyclohexyl(3-methylfuro[3,2-b]pyridin-2-yl)methyl]amino}phenyl)carbonyl]amino}propanoic acid], for which the inhibition at 10 µM turned out to be 85%. The value for `Cc1c(C(Nc2ccc(C(=O)N(C)CCC(=O)O)cc2)C2CCCCC2)oc2cccnc12` (stereo not shown) [Example A113, 3-{[(4-{[cyclohexyl(3-methylfuro[3,2-b]pyridin-2-yl)methyl]amino}phenyl)carbonyl](methyl)amino}propanoic acid] was 68%; that for `COc1ccc2oc(C(Nc3ccc(C(=O)N(C)CCC(=O)O)cc3)c3ccccc3)c(C)c2c1` (stereo not shown) [Example A114, 3-{[(4-{[(5-methoxy-3-methyl-1-benzofuran-2-yl)(phenyl)methyl]amino}phenyl)carbonyl](methyl)amino}-propanoic acid] was 70%; that for `CCNC(=O)Nc1ccc2oc(C(Nc3ccc(C(=O)N(C)CCC(=O)O)cc3)C3CCCCC3)c(C)c2c1` (stereo not shown) [Example A115, 3-[({4-[(cyclohexyl{5-[(ethylcarbamoyl)amino]-3-methyl-1-benzofuran-2-yl}methyl)amino]phenyl}carbonyl)(methyl)amino]propanoic acid] was 53%. On to `COc1ccc2nc(C(Nc3ccc(C(=O)NCCC(=O)O)cc3)C3CCCCC3)n(C)c2c1` (stereo not shown) [Example A116, 3-{[(4-{[cyclohexyl(6-methoxy-1-methyl-1H-benzimidazol-2-yl)methyl]amino}phenyl)carbonyl]amino}propanoic acid], for which the inhibition at 10 µM came out at 58%. As to `CCCCCCC(Nc1ccc(C(=O)NCCC(=O)O)cc1)c1oc2ccc(OC)cc2c1C` (stereo not shown) [Example A118, 3-{[(4-{[1-(5-methoxy-3-methyl-1-benzofuran-2-yl)heptyl]amino}phenyl)carbonyl]amino}propanoic acid], the inhibition at 10 µM stood at 70%. `CCCCCCC(Nc1ccc(C(=O)N(C)CCC(=O)O)cc1)c1oc2ccc(OC)cc2c1C` (stereo not shown) [Example A119, 3-{[(4-{[1-(5-methoxy-3-methyl-1-benzofuran-2-yl)heptyl]amino}phenyl)carbonyl](methyl)amino}propanoic acid]: the inhibition at 10 µM was 70%. For `COc1ccc2oc(C(CCCCSC)Nc3ccc(C(=O)NCCC(=O)O)cc3)c(C)c2c1` (stereo not shown) [Example A120, 3-{[(4-{[1-(5-methoxy-3-methyl-1-benzofuran-2-yl)-5-(methylsulfanyl)pentyl]amino}phenyl)carbonyl]amino}propanoic acid], the inhibition at 10 µM came out at 73%. As to `COc1ccc2oc(C(CCCCSC)Nc3ccc(C(=O)N(C)CCC(=O)O)cc3)c(C)c2c1` (stereo not shown) [Example A121, 3-{[(4-{[1-(5-methoxy-3-methyl-1-benzofuran-2-yl)-5-(methylsulfanyl)pentyl]amino}phenyl)carbonyl](methyl)amino}-propanoic acid], the inhibition at 10 µM is 59%. For `COCCCCC(Nc1ccc(C(=O)NCCC(=O)O)cc1)c1oc2ccc(OC)cc2c1C` (stereo not shown) [Example A123, 3-{[(4-{[5-methoxy-1-(5-methoxy-3-methyl-1-benzofuran-2-yl)pentyl]amino}phenyl)carbonyl]amino}propanoic acid] the value was 71%. On to `COCCCCC(Nc1ccc(C(=O)N(C)CCC(=O)O)cc1)c1oc2ccc(OC)cc2c1C` (stereo not shown) [Example A124, 3-{[(4-{[5-methoxy-1-(5-methoxy-3-methyl-1-benzofuran-2-yl)pentyl]amino}phenyl)carbonyl](methyl)amino}propanoic acid], for which the inhibition at 10 µM is 51%. For the compound `Cc1c(C(Nc2ccc(C(=O)NCCC(=O)O)cc2)C2CCCCC2)oc2ccc(Br)nc12` (stereo not shown) [Example A125, 3-{[(4-{[(5-bromo-3-methylfuro[3,2-b]pyridin-2-yl)(cyclohexyl)methyl]amino}phenyl)carbonyl]amino}propanoic acid], the inhibition at 10 µM stood at 69%. Consider `Cc1c(C(Nc2ccc(C(=O)N(C)CCC(=O)O)cc2)C2CCCCC2)oc2ccc(Br)nc12` (stereo not shown) [Example A126, 3-{[(4-{[(5-bromo-3-methylfuro[3,2-b]pyridin-2-yl)(cyclohexyl)methyl]amino}phenyl)carbonyl](methyl)amino}-propanoic acid], for which the inhibition at 10 µM was found to be 68%. `Cc1c(C(Nc2ccc(C(=O)NCCC(=O)O)cc2)C2CCCCC2)oc2ccc(Cl)nc12` (stereo not shown) [Example A127, 3-{[(4-{[(5-chloro-3-methylfuro[3,2-b]pyridin-2-yl)(cyclohexyl)methyl]amino}phenyl)carbonyl]amino}propanoic acid]: the inhibition at 10 µM was found to be 71%. For `Cc1c(C(Nc2ccc(C(=O)N(C)CCC(=O)O)cc2)C2CCCCC2)oc2ccc(Cl)nc12` (stereo not shown) [Example A128, 3-{[(4-{[(5-chloro-3-methylfuro[3,2-b]pyridin-2-yl)(cyclohexyl)methyl]amino}phenyl)carbonyl](methyl)amino}-propanoic acid] the value was 83%. Regarding `Cc1c(C(Nc2ccc(C(=O)N(C)CCC(=O)O)cc2)C2CCCCC2)oc2ccc(NC(=O)c3ccccc3)cc12` (stereo not shown) [Example A129, 3-[({4-[(cyclohexyl{3-methyl-5-[(phenylcarbonyl)amino]-1-benzofuran-2-yl]methyl)amino}phenyl]carbonyl)(methyl)amino}propanoic acid], the inhibition at 10 µM came to 82%.

For `Cc1c(C(Nc2ccc(C(=O)N(C)CCC(=O)O)cc2)C2CCCCC2)oc2ccc(NS(=O)(=O)c3ccccc3)cc12` (stereo not shown) [Example A130, 3-[({4-[(cyclohexyl{3-methyl-5-[(phenylsulfonyl)amino]-1-benzofuran-2-yl}methyl)amino]phenyl}carbonyl)(methyl)amino]propanoic acid], the inhibition at 10 µM came out at 76%. With `Cc1c(C(Nc2ccc(C(=O)N(C)CCC(=O)O)cc2)C2CCCCC2)oc2ccc(NCc3ccccc3)cc12` (stereo not shown) [Example A131, 3-[{[4-({[5-(benzylamino)-3-methyl-1-benzofuran-2-yl](cyclohexyl)methyl}amino)phenyl]carbonyl}(methyl)amino]-propanoic acid], the inhibition at 10 µM came out at 87%. In the case of `COCCOCc1c(C(Nc2ccc(C(=O)NCCC(=O)O)cc2)C2CCCCC2)oc2ccc(F)cc12` (stereo not shown) [Example A132, 3-[({4-[(cyclohexyl{5-fluoro-3-[(2-methoxyethoxy)methyl]-1-benzofuran-2-yl}methyl)amino]phenyl}carbonyl)amino]propanoic acid], the inhibition at 10 µM turned out to be 83%. On to `COCCOCc1c(C(Nc2ccc(C(=O)N(C)CCC(=O)O)cc2)C2CCCCC2)oc2ccc(F)cc12` (stereo not shown) [Example A133, 3-[({4-[(cyclohexyl{5-fluoro-3-[(2-methoxyethoxy)methyl]-1-benzofuran-2-yl}methyl)amino]phenyl}carbonyl)(methyl)amino]propanoic acid], for which the inhibition at 10 µM was 80%. For `CCC(CC)C(Nc1ccc(C(=O)NCCC(=O)O)cc1)c1sc2ccccc2c1C` (stereo not shown) [Example A134, 3-{[(4-{[2-ethyl-1-(3-methyl-1-benzothiophene-2-yl)butyl]amino}phenyl)carbonyl]amino}propanoic acid], the inhibition at 10 µM was 82%. Turning to `CCC(CC)C(Nc1ccc(C(=O)N(C)CCC(=O)O)cc1)c1sc2ccccc2c1C` (stereo not shown) [Example A135, 3-{[(4-{[2-ethyl-1-(3-methyl-1-benzothiophen-2-yl)butyl]amino}phenyl)carbonyl](methyl)amino}propanoic acid], the inhibition at 10 µM is 76%.
